The values that follow come from US8710233B2 (Gruenenthal GmbH, priority 2005, dated 2014).

One assay has as its target T1, vanilloid receptor (VR1) (Homo sapiens, UniProt Q8NER1).
T1 construct: expressed in transfected cells; host or cells: CHO K1 cells (ECACC), stably transfected
As to the kind of experiment: FLIPR Ca2+ influx assay on CHO K1 cells transfected with the VR1 gene (pharmacological method II). It is filed as cell-based. The conditions noted are these: table 4; capsaicin; read-out: Ki (human) Cap.

A further assay has as its target VR1/TRPV1 receptor (Homo sapiens, UniProt Q8NER1). As to the kind of experiment: IC50 (human) after pH stimulus. The conditions noted are these: for IC50: table 4. It is filed as cell-based.
Setting [1] is: read-out: inhibition in percent, IC50 (human) after pH stimulus.

Structures are written as SMILES.

Chain of VR1/TRPV1 receptor (Q8NER1 whole entry): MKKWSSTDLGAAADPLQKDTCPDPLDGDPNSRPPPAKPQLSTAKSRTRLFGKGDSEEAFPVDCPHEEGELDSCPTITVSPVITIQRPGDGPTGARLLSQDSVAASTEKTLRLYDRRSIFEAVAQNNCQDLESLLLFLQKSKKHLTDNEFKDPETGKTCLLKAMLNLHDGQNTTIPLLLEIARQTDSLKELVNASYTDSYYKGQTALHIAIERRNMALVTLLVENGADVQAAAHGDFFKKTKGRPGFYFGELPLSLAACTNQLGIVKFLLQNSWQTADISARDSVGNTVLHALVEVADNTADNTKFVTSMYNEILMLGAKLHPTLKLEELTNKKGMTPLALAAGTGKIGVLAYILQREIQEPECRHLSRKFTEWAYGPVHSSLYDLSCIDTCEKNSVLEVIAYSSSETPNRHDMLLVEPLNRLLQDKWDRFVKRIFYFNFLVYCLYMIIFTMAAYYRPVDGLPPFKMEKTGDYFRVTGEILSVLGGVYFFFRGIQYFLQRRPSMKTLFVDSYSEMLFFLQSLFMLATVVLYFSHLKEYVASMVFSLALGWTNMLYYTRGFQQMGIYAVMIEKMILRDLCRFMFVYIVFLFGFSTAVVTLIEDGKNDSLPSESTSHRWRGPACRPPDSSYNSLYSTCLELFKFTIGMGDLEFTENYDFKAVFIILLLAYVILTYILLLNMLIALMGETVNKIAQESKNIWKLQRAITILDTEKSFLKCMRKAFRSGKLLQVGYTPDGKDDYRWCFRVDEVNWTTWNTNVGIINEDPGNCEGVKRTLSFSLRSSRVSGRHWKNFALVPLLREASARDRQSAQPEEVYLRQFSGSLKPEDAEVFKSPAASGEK
T1 sequence (Q8NER1 whole entry): as above

For orientation: Ki means the equilibrium dissociation constant of an inhibitor or competing ligand from its target. As a reminder, the IC50 is the concentration at which inhibition is half-maximal. Lower therefore signals inhibition by little substance. With `CC(C(=O)NCc1ccc(C(F)(F)F)nc1C#Cc1ccccc1)c1ccc(NS(C)(=O)=O)c(F)c1` (stereo not drawn) [Example 354, 2-(3-fluoro-4-methylsulfonamido-phenyl)-N-(2-phenylethynyl-6-trifluoromethyl-pyridin-3-ylmethyl)-propionamide], the Ki at vanilloid receptor (VR1) is 0.8 nM. The IC50 at VR1/TRPV1 receptor is 85 nM.
With `COCCCOc1nc(C(C)(C)C)ccc1CNC(=O)C(C)c1ccc(NS(C)(=O)=O)c(F)c1` (stereo not drawn) [Example 370, N-((6-tert-butyl-2-(3-methoxypropoxy)pyridin-3-yl)methyl)-2-(3-fluoro-4-(methylsulfonamido)phenyl)propanamide], the Ki on vanilloid receptor (VR1) turned out to be 5.6 nM. The IC50 against VR1/TRPV1 receptor was 250 nM.
Consider `CC/C=C\COc1nc(C(F)(F)F)ccc1CNC(=O)C(C)c1ccc(NS(C)(=O)=O)c(F)c1` (stereo not drawn) [Example 299, 2-(3-fluoro-4-methylsulfonamido-phenyl)-N-(2-pent-2-enyloxy-6-trifluoromethyl-pyridin-3-ylmethyl)-propionamide], for which the Ki at vanilloid receptor (VR1) amounted to 1 nM. Inhibition against VR1/TRPV1 receptor was half-maximal at 43 nM (IC50).
In the same order, the values of `CC(C(=O)NCc1ccc(C(F)(F)F)nc1N1C[C@@H](C)O[C@@H](C)C1)c1ccc(NS(C)(=O)=O)c(F)c1` (stereo partly drawn) [Example 311, N-[2-(2,6-dimethyl-morpholin-4-yl)-6-trifluoromethyl-pyridin-3-ylmethyl]-2-(3-fluoro-4-methylsulfonamido-phenyl)-propionamide] are 1.43 nM and 1090 nM.
In the case of `CCC/C=C\c1nc(C(F)(F)F)ccc1CNC(=O)C(C)c1ccc(NS(C)(=O)=O)c(F)c1` (stereo not drawn) [Example 300, 2-(3-fluoro-4-methylsulfonamido-phenyl)-N-(2-pent-1-enyl-6-trifluoromethyl-pyridin-3-ylmethyl)-propionamide], the Ki on vanilloid receptor (VR1) is 2.1 nM. In addition, on VR1/TRPV1 receptor, the IC50 was 59.5 nM.
For the molecule `COc1ccc(-c2cc(C(F)(F)F)ccc2CNC(=O)C(C)c2ccc(NS(C)(=O)=O)c(F)c2)cc1` (stereo not drawn) [Example 321, 2-(3-fluoro-4-methylsulfonamido-phenyl)-N-(4′-methoxy-5-trifluoromethyl-biphenyl-2-ylmethyl)-propionamide], the inhibition constant (Ki) at vanilloid receptor (VR1) was determined as 0.8 nM. This molecule registered an IC50 at VR1/TRPV1 receptor of 38 nM.
On the same counts, the results for `CCC/C=C/c1nc(C(F)(F)F)ccc1CNC(=O)C(C)c1ccc(NS(C)(=O)=O)c(F)c1` (stereo not drawn) [Example 301, 2-(3-fluoro-4-methylsulfonamido-phenyl)-N-(2-pent-1-enyl-6-trifluoromethyl-pyridin-3-ylmethyl)-propionamide] are 0.9 nM and 102 nM.
One may read the inhibition as the percentage by which the read-out fell short of the control. On to `CCCCC(CCCC)Oc1nc(C(F)(F)F)ccc1CNC(=O)C(C)c1ccc(NS(C)(=O)=O)c(F)c1` (stereo not drawn) [Example 352, N-[2-(1-butyl-pentyloxy)-6-trifluoromethyl-pyridin-3-ylmethyl]-2-(3-fluoro-4-methylsulfonamido-phenyl)-propionamide], for which the Ki at vanilloid receptor (VR1) stood at 0.5 nM. Moreover, on VR1/TRPV1 receptor (@ 5 μM, read-out: inhibition in percent, IC50 (human) after pH stimulus), the inhibition at 5 µM stood at 34%. Besides, the inhibition at 10 µM on VR1/TRPV1 receptor (setting [1]) stood at 61%.
With `COc1cc(OC)cc(-c2cc(C(F)(F)F)ccc2CNC(=O)C(C)c2ccc(NS(C)(=O)=O)c(F)c2)c1` (stereo not drawn) [Example 350, N-(3′,5′-dimethoxy-5-trifluoromethyl-biphenyl-2-ylmethyl)-2-(3-fluoro-4-methylsulfonamido-phenyl)-propionamide], the Ki on vanilloid receptor (VR1) came out at 5.8 nM. Moreover, the inhibition at 0.1 µM on VR1/TRPV1 receptor (@ 0.1 μM, read-out: inhibition in percent, IC50 (human) after pH stimulus) was 4%. For the same molecule, on VR1/TRPV1 receptor (@ 1 μM, ne = no effect, read-out: inhibition in percent, IC50 (human) after pH stimulus), the inhibition at 1 µM was 52%.
In the case of `CC(C)COc1nc(C(F)(F)F)ccc1CNC(=O)[C@@H](C)c1ccc(NS(C)(=O)=O)c(F)c1` [Example 96, (S)-2-(3-fluoro-4-methylsulfonamido-phenyl)-N-(2-isobutoxy-6-trifluoromethyl-pyridin-3-ylmethyl)-propionamide], the inhibition constant (Ki) on vanilloid receptor (VR1) turned out to be 0.5 nM. Further, the IC50 against VR1/TRPV1 receptor turned out to be 30 nM.
For `CC(C(=O)NCc1ccc(C(F)(F)F)nc1-c1ccc(N(C)C)cc1)c1ccc(NS(C)(=O)=O)c(F)c1` (stereo not drawn) [Example 308, N-[2-(4-dimethylamino-phenyl)-6-trifluoromethyl-pyridin-3-ylmethyl]-2-(3-fluoro-4-methylsulfonamido-phenyl)-propionamide], on vanilloid receptor (VR1), the Ki is 3.2 nM. The molecule also yielded an IC50 at VR1/TRPV1 receptor of 414 nM.
Consider `CCCN(CCC)c1nc(C(C)(C)C)ccc1CNC(=O)C(C)c1ccc(NS(C)(=O)=O)c(F)c1` (stereo not drawn) [Example 297, N-(6-tert-butyl-2-dipropylamino-pyridin-3-ylmethyl)-2-(3-fluoro-4-methylsulfonamido-phenyl)-propionamide], for which the Ki at vanilloid receptor (VR1) was found to be 2.5 nM. For the same molecule, the IC50 against VR1/TRPV1 receptor came to 179 nM.
On the same counts, the results for `CCCCCOc1nc(C(F)(F)F)cc(C)c1CNC(=O)C(C)c1ccc(NS(C)(=O)=O)c(F)c1` (stereo not drawn) [Example 302, 2-(3-fluoro-4-methylsulfonamido-phenyl)-N-(4-methyl-2-pentyloxy-6-trifluoromethyl-pyridin-3-ylmethyl)-propionamide] are 100 nM and 1180 nM.
For `CCOc1nc(C(C)(C)C)ccc1CNC(=O)C(C)c1ccc(NS(C)(=O)=O)c(F)c1` (stereo not drawn) [Example 373, N-((6-tert-butyl-2-ethoxypyridin-3-yl)methyl)-2-(3-fluoro-4-(methylsulfonamido)phenyl)propanamide], the Ki on vanilloid receptor (VR1) stood at 14.8 nM. Inhibition against VR1/TRPV1 receptor was half-maximal at 492 nM (IC50).
Consider `CCC(CC)Oc1nc(C(F)(F)F)ccc1CNC(=O)C(C)c1ccc(NS(C)(=O)=O)c(F)c1` (stereo not drawn) [Example 335, N-[2-(1-ethyl-propoxy)-6-trifluoromethyl-pyridin-3-ylmethyl]-2-(3-fluoro-4-methylsulfonamido-phenyl)-propionamide], for which the inhibition constant Ki at vanilloid receptor (VR1) came out at 1.1 nM. In addition, at VR1/TRPV1 receptor (@ 1 μM, ne = no effect), the “inhibition in percent, IC50 (human) after pH stimulus” value is reported as “ne @ 1 μM”.
Take `CC(C(=O)NCc1ccc(C(F)(F)F)nc1NCC1CCN(C(=O)OC(C)(C)C)CC1)c1ccc(NS(C)(=O)=O)c(F)c1` (stereo not drawn) [Example 342, 4-[(3-{[2-(3-fluoro-4-methylsulfonamido-phenyl)-propionylamino]-methyl}-6-trifluoromethyl-pyridin-2-ylamino)-methyl]-piperidine-1-carbonic acid tert-butyl ester]: the Ki on vanilloid receptor (VR1) is 19.3 nM. Moreover, the 50% inhibitory concentration (IC50) on VR1/TRPV1 receptor amounted to 1140 nM.
Consider `CC(C)Oc1nc(C(C)(C)C)ccc1CNC(=O)C(C)c1ccc(NS(C)(=O)=O)c(F)c1` (stereo not drawn) [Example 374, N-((6-tert-butyl-2-isopropoxypyridin-3-yl)methyl)-2-(3-fluoro-4-(methylsulfonamido)phenyl)propanamide], for which the Ki at vanilloid receptor (VR1) turned out to be 2.3 nM. Moreover, on VR1/TRPV1 receptor, the IC50 stood at 314 nM.
On to `CCCOc1nc(C(C)(C)C)ccc1CNC(=O)C(C)c1ccc(NS(C)(=O)=O)c(F)c1` (stereo not drawn) [Example 369, N-((6-tert-butyl-2-propoxypyridin-3-yl)methyl)-2-(3-fluoro-4-(methylsulfonamido)phenyl)propanamide], for which, on vanilloid receptor (VR1), the Ki amounted to 1.7 nM. On VR1/TRPV1 receptor, this molecule returned an IC50 of 182 nM.
With `CCCCCc1nc(C(F)(F)F)ccc1CNC(=O)[C@H](C)c1ccc(NS(C)(=O)=O)c(F)c1` [Example 145, (R)-2-(3-fluoro-4-methylsulfonamido-phenyl)-N-(2-pentyl-6-trifluoromethyl-pyridin-3-ylmethyl)-propionamide], the Ki on vanilloid receptor (VR1) was found to be 78 nM. Besides, at VR1/TRPV1 receptor (setting [1]), the inhibition at 10 µM turned out to be 49%.
For `CC(C)COc1cc(C(F)(F)F)ccc1CNC(=O)C(C)c1ccc(NS(C)(=O)=O)c(F)c1` (stereo not drawn) [Example 98, 2-(3-fluoro-4-methylsulfonamido-phenyl)-N-(2-isobutoxy-4-trifluoromethyl-benzyl)-propionamide], the inhibition constant (Ki) on vanilloid receptor (VR1) was 1.5 nM. Moreover, the IC50 against VR1/TRPV1 receptor worked out at 41 nM.
With `CC(C(=O)NCc1ccc(C(F)(F)F)nc1CCc1ccc(F)cc1)c1ccc(NS(C)(=O)=O)c(F)c1` (stereo not drawn) [Example 303, 2-(3-fluoro-4-methylsulfonamido-phenyl)-N-{2-[2-(4-fluoro-phenyl)-ethyl]-6-trifluoromethyl-pyridin-3-ylmethyl}-propionamide], the inhibition constant (Ki) on vanilloid receptor (VR1) was found to be 1.8 nM. Besides, it took 76.2 nM to reach half-maximal inhibition at VR1/TRPV1 receptor (IC50).
For `Cc1ccc(CNC(=O)C(C)c2ccc(NS(C)(=O)=O)c(F)c2)c(N2CCC(C)CC2)n1` (stereo not drawn) [Example 316, N-(4,6′-dimethyl-3,4,5,6-tetrahydro-2H-[1,2′]bipyridinyl-3′-ylmethyl)-2-(3-fluoro-4-methylsulfonamido-phenyl)-propionamide], on vanilloid receptor (VR1), the Ki was 72.1 nM. The “inhibition in percent, IC50 (human) after pH stimulus” value against VR1/TRPV1 receptor (@ 1 μM, ne = no effect) is recorded as “ne @ 1 μM”.
Regarding `CC(C(=O)NCc1ccc(C(F)(F)F)nc1OCCOc1ccccc1)c1ccc(NS(C)(=O)=O)c(F)c1` (stereo not drawn) [Example 362, 2-(3-fluoro-4-methylsulfonamido-phenyl)-N-[2-(2-phenoxy-ethoxy)-6-trifluoromethyl-pyridin-3-ylmethyl]-propionamide], the Ki at vanilloid receptor (VR1) was determined as 1.5 nM. Also, the half-inhibitory concentration (IC50) at VR1/TRPV1 receptor turned out to be 161 nM.
